Laboratory results from paper PMC10447463, “Data-mining unveils structure–property–activity correlation of viral infectivity enhancing self-assembling peptides” (Nature Communications, 2023).
Like-named read-outs stand apart in the source and are kept apart here.

Legend:
[1] = tested on: HIV-1 infection of TZM-bl cells; assay: HIV-1 infectivity enhancement assay, β-galactosidase luminescence; assay type: cell-based; conditions: for Log10 Infection Rel EF-C: log10 of infection relative to EF-C; for Inf. rel. EF-C: n-fold infection vs virus only, relative to that of EF-C, 1.3 µM peptide; for Absolute Infectivity / RLU /s (Feb2021): figures match the 1.3 µM column; for Log10 Inf. rel. to EF-C: log10 of HIV-1 infection of TZM-bl cells relative to EF-C, Fig S15 source data, asymmetric std dev errors
[2] = assay type: physicochemical; conditions: for ThT Cat. / ThT-Fluorescence (categorical): ThT-active if fluorescence at least twice the control
Procedure, shortened: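 Fibrils (1 mg/mL solution) were mixed with 50 µM ThT in PBS for 15 min at RT, and fluorescence was read at λex 440/λem 488 nm against a PBS blank, as a triplicate mean ± SD. Zeta potential came from electrophoretic mobility (Smoluchowski) after 1 d aggregation at 1 mg/mL in PBS pH 7.4, diluted into 1 mM KCl.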

[3] = Zeta-potential measurement; assay type: physicochemical; conditions: for Zeta pot. / mV: 1 mg/mL in PBS pH 7.4 from 10 mg/mL DMSO stock, 1 d RT, 60 µL diluted in 600 µL 1 mM KCl, Zetasizer Nano ZS, Smoluchowski, mean of triplicate; for Zeta-pot. / mV: zeta potential of peptide, Fig S15 source data
Procedure, shortened: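 Dissolve peptide from DMSO (10 mg/mL stock) into PBS pH 7.4 to 1 mg/mL. Incubate 1 d, RT. Dilute in 1 mM KCl just before reading. Derive zeta potential from mobility (Smoluchowski).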

[4] = Feb2021, infectivity relative to virus only
[5] = Feb2021, log10 of infectivity relative to EF-C
[6] = Feb2021, n-fold infectivity relative to EF-C
[7] = Feb2021 run, infectivity n-fold relative to virus alone
[8] = Feb2021 run, log10 of infectivity relative to EF-C
[9] = Feb2021 run, n-fold infectivity relative to EF-C
[10] = infectivity class (low / medium / high) of each library peptide, main list in c1-c6, same classes repeated in sub-lists of sequences containing the hydrophobicity/charge patterns P+,H0,P+,H0,P0,H0,P0, P+,H0,P0,H0,P0,H0,P0, P+,H0,P0,H0
[11] = infectivity enhancement relative to EF-C (=1), Feb2021 run
[12] = infectivity n-fold relative to virus only, Feb2021 run
[13] = log10 of infectivity relative to EF-C, Feb2021 run
[14] = ThT fluorescence relative to blank (42.1851851851852 a.u.)
[15] = ThT fluorescence relative to blank, blank = 42.1851851851852
[16] = relative to blank 42.1851851851852 a.u.
[17] = infectivity class (low / medium / high) of the peptide in the sequence-pattern analysis, Fig. S22-A4, class limits not given

| Substance | Inf. rel. EF-C [1] | ThT Cat. / ThT-Fluorescence (categorical) [2] | Log10 Infection Rel EF-C ([1]; Figure 6C) | Zeta-Potential / mV ([3]; mean, Figure 6C) [mV] | Absolute Infectivity / RLU /s (Feb2021) ([1]; Feb2021) [RLU /s] | n-fold to virus (Feb2021) [1, 4] | Log10 of Rel to EFC (Feb2021) [1, 5] | Rel-to EFC (Feb-2021) [1, 6] | n-fold to virus (Feb2021) [1, 7] | Log10 of Rel to EFC (Feb2021) [1, 8] | Rel-to EFC (Feb-2021) [1, 9] | infectivity [1, 10] | Log10 Inf. rel. to EF-C [1] | Tht rel to blank (42.1851851851852) [2, 14] | Tht rel to blank (42.1851851851852) [2, 15] | Tht category (> 1.5 to blank = +) ([2]; category 1/0) | Tht rel to blank (42.1851851851852) [2, 16] | Zeta Pot. / mV [3] [mV] | Zeta category ( +1 = if > 4 mV;-1 = if < -4 mV; 0 = -4mV to 4 mV) [3] | Zeta-pot. / mV [3] [mV] | further results |
| --- | --- | --- | --- | --- | --- | --- | --- | --- | --- | --- | --- | --- | --- | --- | --- | --- | --- | --- | --- | --- | --- |
| RATVYV [reference compound] | 0.04 | 0 (ThT-inactive (N-Fold <2)) |  |  |  |  |  |  |  |  |  |  |  |  |  |  |  |  |  |  | Log10 Infection Rel EF-C ([1]; Figure 7B): -1.38; Zeta pot. / mV [3]: -5.2 mV; Zeta-Potential / mV ([3]; mean, Figure 7B): -5.17 mV |
| RFWFWFW | 0.32 | 1 (ThT. Cat is 1, if Rel. ThT >2) | -0.495 | 13.63 |  |  |  |  |  |  |  |  |  |  |  |  |  |  |  |  |  |
| RGDKIKIQINM [MG8a / CN17] |  |  |  |  | 9554 | 17.36 | -0.3838 | 0.4132 | 17.36 | -0.3838 | 0.4132 | medium | -0.3838 | 9.126 | 9.126 | 1 (ThT. Cat is 1, if Rel. ThT >2) | 9.126 | 16.43 | 1 (+1 = if > 4 mV) | 16.43 | Rel-to EFC (Feb-2021) [1, 11]: 0.4132; n-fold to virus (Feb2021) [1, 12]: 17.36; Log10 of Rel to EFC (Feb2021) [1, 13]: -0.3838; Zeta Pot. / mV ([3]; mean, Std in separate column): 16.43 mV |
| RGDKIKIQINMC [psis29] |  |  |  |  |  |  |  |  | 44.93 | 0.02911 | 1.069 | high | 0.02911 | 1.396 |  | 0 (ThT-inactive (N-Fold <2)) | 1.396 |  | 1 (+1 = if > 4 mV) | 12.2 | infectivity [1, 17]: high; Rel-to EFC (Feb-2021) [1, 11]: 1.069; n-fold to virus (Feb2021) [1, 12]: 44.93; Log10 of Rel to EFC (Feb2021) [1, 13]: 0.02911; Zeta category ( +1 = if > 4 mV;-1 = if < -4 mV; 0 = -4mV to 4 mV) ([3]; FigS26): 1 (+1 = if > 4 mV); Zeta Pot. / mV ([3]; mean, Std in separate column): 12.2 mV |
| RGDKIKIQINMWQ [MG9a] |  |  |  |  |  |  |  |  | 32.06 | -0.1175 | 0.763 | high | -0.1175 | 1.781 |  | 0 (ThT-inactive (N-Fold <2)) | 1.781 |  | 1 (+1 = if > 4 mV) | 6.59 | Log10 of Rel to EFC (Feb2021) ([1]; Feb2021, Log10 of infectivity relative to EF-C): -0.1175; Rel-to EFC (Feb-2021) ([1]; Feb2021, n-fold enhancement relative to EF-C): 0.763; infectivity [1, 17]: high; Tht category (> 1.5 to blank = +) ([2]; FigS26): 0 (Tht category (> 1.5 to blank = +)); Zeta category ( +1 = if > 4 mV;-1 = if < -4 mV; 0 = -4mV to 4 mV) ([3]; category from zeta potential): 1 (+1 = if > 4 mV); Zeta Pot. / mV ([3]; mean, Std Zeta in next column): 6.59 mV; Zeta Pot. / mV ([3]; mean, Std in separate column): 6.59 mV |
| RGECKFKFQF [CN16] |  |  |  |  | 7411 | 13.99 | -0.4776 | 0.3329 |  |  |  | medium | -0.4776 |  | 2.392 | 1 (ThT. Cat is 1, if Rel. ThT >2) |  | 23.97 | 1 (+1 = if > 4 mV) | 23.97 |  |
| RGEKIKIQINM [CN18] |  |  |  |  | 7838 | 10.23 | -0.6134 | 0.2436 |  |  |  | medium | -0.6134 |  | 3.423 | 1 (ThT. Cat is 1, if Rel. ThT >2) |  | 15.3 | 1 (+1 = if > 4 mV) | 15.3 |  |
| RINFWFW | 0.04 | 1 (ThT. Cat is 1, if Rel. ThT >2) | -1.347 | 10.8 |  |  |  |  |  |  |  |  |  |  |  |  |  |  |  |  |  |
| RIRFHIW | 0.01 | 0 (ThT-inactive (N-Fold <2)) | -1.984 | 0.107 |  |  |  |  |  |  |  |  |  |  |  |  |  |  |  |  | Zeta pot. / mV [3]: 0.107 mV |
